According to US20180296530A1, “METHOD FOR TREATING ATOPIC DERMATITIS” (priority 2015, published 2018):
Entries after “also recorded” stand apart in the source; their conditions may differ.

Columns and labels:
[1] = Clinical trial: nocturnal urinary 6-sulfatoxymelatonin by ELISA; type: in vivo, human; conditions: after treatment with melatonin compared with placebo, P<0.001
Experimental: The first urine sample on the morning after each actigraphic examination was obtained. Levels of urinary 6-sulfatoxymelatonin were assayed by enzyme-linked immunosorbent assay with a commercialized kit (IBL International GmbH) and were used to represent the melatonin level throughout the previous night.

[2] = Clinical trial: adverse events; type: in vivo, human; conditions: oral melatonin 3 mg/d, 4 weeks, children with AD
Experimental: Visits occurred at the start of the prescreening and on the first and last day of each treatment period, during which AD disease severity was assessed, blood and urine samples were collected, questionnaires evaluating subjective symptoms were filled out, and pill count and adverse events were recorded.

[3] = test system: IL-17; assay: Example 5: dorsal skin IL-17 mRNA by RT-PCR; type: in vivo, Balb/c mice
Experimental: (§1) The protocol for establishing an AD mouse model in this Example was modified from those described previously. Briefly, referring to FIG. 4, DNCB-induced AD mouse model was prepared by the repeated applications of 20 μL of 1% DNCB in acetone/olive oil (4:1) to the outer and inner surfaces of mouse ears and 100 μL of the same solution to the shaved back skin once on days 1, 2, and 3. Mice of Control group were treated with the identical volumes of vehicle.
(§2) The DNCB-sensitized mice were randomly assigned to one of three groups: DNCB (Positive control), DNCB+3% topical melatonin (Treatment: low-dose), DNCB+5% topical melatonin (Treatment: high-dose). Each group (including Control group) consisted of 5 mice. From days 9 to 19, sensitized mice were challenged by applying 0.5% DNCB to the skin surfaces. For the two groups treated with topical melatonin groups, 0.3 mg of topical melatonin ointment (3% or 5% melatonin in Vaseline) was given together with DNCB during the challenge period. […]
(§3) Blood and dorsal skin of each mouse were collected on the last day of the experiment (Day 20) and stored at −80° C. until use. Serum IgE levels were measured using the ImmunoCAP fluorescence enzyme immunoassay (Phadia AB, Sweden) according to the manufacturer's instructions. The dorsal skin mRNA expression of the cytokines IL-4, IL-13, and IL-17 were measured by RT-PCR.

[4] = test system: serum total IgE; assay: Example 5: serum IgE in DNCB-induced AD mouse model; type: in vivo, Balb/c mice; conditions: 5% melatonin treatment compared with the DNCB-stimulated group, p=0.02, Day 20
Experimental: as §1, §2, §3

[5] = test system: Patients aged 1 to 18 years with physician-diagnosed AD; assay: Randomized double-blind placebo-controlled crossover clinical trial: AD severity by SCORAD index; type: in vivo, human; design: key to mean SCORAD index, first treatment period, before / mean SCORAD index, first treatment period, after: SCORAD index, range 1-103, higher = worse symptoms; key to Objective SCORAD index, Difference: objective SCORAD, range 0-83, higher = worse symptoms
Experimental: A randomized clinical study with a double-blind, placebo-controlled crossover design was performed. The institutional review committee of National Taiwan University Hospital approved the study protocol. This study conformed to the principles of the Declaration of Helsinki. Patients or their guardians provided written informed consent. Patients aged 1 to 18 years with physician-diagnosed AD involving at least 5% of the total body surface area were recruited from the pediatric and dermatology outpatient departments of the National Taiwan University Hospital from Aug. 1, 2012, through Jan. 31, 2013. Follow-up was completed on Apr. 13, 2013. Those patients with sleep problems occurring more than 3 days per week during the previous 3 months were eligible. The study participants were randomly assigned to 2 groups in a 1:1 ratio, with a block size of 4. One group received melatonin first and then placebo, and the other group received placebo first and then melatonin. The melatonin and placebo tablets were identical in appearance. The participants and their caregivers, treating physicians, those assessing outcomes, and those analyzing the data were all masked to group assignment. […] They were then randomized to receive oral melatonin, 3 mg/d (General Nutrition Corporation), or placebo (Standard Chem & Pharm Co, Ltd) at bedtime for 4 weeks. After a 2-week washout period, participants crossed to the alternate treatment. In this clinical trial, the primary study outcome was the Scoring Atopic Dermatitis (SCORAD) index for the evaluation of AD severity. Secondary outcomes included the objective sleep variables measured by actigraphy, the patient's subjective description of the change in sleep and dermatitis severity, the sleep variables measured by polysomnography, nocturnal urinary levels of 6-sulfatoxymelatonin, and serumtotal and allergen-specific IgE levels. Severity of AD was assessed using the SCORAD index (range, 1-103, with greater scores indicating worse symptoms) by the same physician (Y.-S.C.) blinded to the treatment randomization. The SCORAD index includes subjective visual analog scale scores from 0 to 10 (with greater numbers indicating worse symptoms) for degree of pruritus and sleep loss, which are referred to as the pruritus score and the subjective sleep score, respectively, in this study. The objective SCORAD index, which excludes the SCORAD score for subjective symptoms (range, 0-83, with greater scores indicating worse symptoms), was also used for analysis.

[6] = test system: serum total IgE and allergen-specific IgE; assay: Clinical trial: serum total and allergen-specific IgE (ImmunoCAP); type: in vivo, human
[7] = after vs before oral melatonin 3 mg/d, 4 weeks, mean
[8] = melatonin vs placebo, adjusted for age and sex

SMILES: COc1ccc2[nH]cc(CCNC(C)=O)c2c1 [Melatonin, melatonin]
- Nocturnal urinary 6-sulfatoxymelatonin levels [1]: significantly increased
- adverse events [2]: no adverse event was reported; also recorded: no adverse effect of medication was reported
- skin mRNA expression of IL-17, dose-response ([3]; 5% melatonin treatment compared with 3% melatonin treatment): decreased more
- skin mRNA expression of IL-17 ([3]; after topical melatonin treatment (3% or 5%), FIG. 11B): decreased
- serum total IgE level [4]: significantly reduced
- SCORAD index vs placebo, Wilcoxon signed rank test ([5]; FIGS. 2A and 2C, sensitivity analysis): apparently decreased the SCORAD index
- patients who subjectively believed that their dermatitis had improved ([5]; after melatonin treatment, 17 of 36 (placebo 12 of 38 [32%])): 47%
- Subjective sleep score, After ([5]; after oral melatonin 3 mg/d at bedtime for 4 weeks, mean): 3.8
- Pruritus score, After ([5]; after oral melatonin 3 mg/d at bedtime for 4 weeks, mean, score 0 to 10): 5.1
- Objective SCORAD index, After ([5]; after oral melatonin 3 mg/d at bedtime for 4 weeks, mean, score 0 to 83): 31.3
- SCORAD index, After ([5]; after oral melatonin 3 mg/d at bedtime for 4 weeks, mean, score 0 to 103): 40.2
- Objective SCORAD index, Difference [5, 7]: −8.2
- Pruritus score, Difference [5, 7]: −0.6
- SCORAD index, Difference [5, 7]: −9.9
- Subjective sleep score, Difference [5, 7]: −1.1
- mean reduction of the SCORAD index ([5]; in 4 weeks, oral melatonin 3 mg/d): 9.9
- decrease of the SCORAD index compared with placebo ([5]; linear mixed-effects model, adjusted for age and sex): 9.1
- decrease of the objective SCORAD index compared with placebo ([5]; linear mixed-effects model, no significant carryover effect (P=0.81), significant period effect (P=0.02)): 8.7
- mean SCORAD index, first treatment period, after ([5]; melatonin group, first treatment period, after oral 3 mg/d for 4 weeks): 42.3
- mean SCORAD index, first treatment period, before ([5]; melatonin group, first treatment period, before treatment): 49.5
- mean SCORAD index, second treatment period, after ([5]; melatonin group, second treatment period, after oral 3 mg/d for 4 weeks): 38.3
- mean SCORAD index, second treatment period, before ([5]; melatonin group, second treatment period, before treatment): 48.7
- Subjective sleep score, Before ([5]; melatonin phase, before treatment, mean): 4.8
- Pruritus score, Before ([5]; melatonin phase, before treatment, mean, score 0 to 10): 5.6
- Objective SCORAD index, Before ([5]; melatonin phase, before treatment, mean, score 0 to 83): 38.6
- SCORAD index, Before ([5]; melatonin phase, before treatment, mean, score 0 to 103): 49.1
- Objective SCORAD index, Difference of Treatment Effect From the Linear Mixed-Effects Model, Mean [5, 8]: −8.7
- Pruritus score, Difference of Treatment Effect From the Linear Mixed-Effects Model, Mean [5, 8]: 0.0
- SCORAD index, Difference of Treatment Effect From the Linear Mixed-Effects Model, Mean [5, 8]: −9.1
- Subjective sleep score, Difference of Treatment Effect From the Linear Mixed-Effects Model, Mean [5, 8]: −0.4
- IgE level, After ([6]; after oral melatonin 3 mg/d at bedtime for 4 weeks, mean, serum): 2483.8 kU/L
- IgE level, Difference [6, 7]: 108.4 kU/L
- IgE level, Before ([6]; melatonin phase, before treatment, mean, serum): 2337.2 kU/L
- effect on allergen-specific IgE levels to Derp, Derf, or S aureus enterotoxins A or B ([6]; melatonin vs placebo, P>0.05): no significant difference
- effect on total IgE level ([6]; melatonin vs placebo, P>0.05): no significant difference
- IgE level, Difference of Treatment Effect From the Linear Mixed-Effects Model, Mean [6, 8]: −113.6 kU/L
